Assays:
Type in all cases: in vivo
[1] = tested on: Amaranthus retroflexus L. (pigweed); assay: Greenhouse post-emergence treatment of Amaranthus retroflexus L.; details: scale 0 (no damage) to 100 (complete destruction)
Source text: (§1) The culture containers used were plastic flowerpots containing loamy sand with approximately 3.0% of humus as the substrate. The seeds of the test plants were sown separately for each species.
(§2) For the post-emergence treatment, the test plants were first grown to a height of 3 to 15 cm, depending on the plant habit, and only then treated with the active ingredients which had been suspended or emulsified in water. For this purpose, the test plants were either sown directly and grown in the same containers, or they were first grown separately as seedlings and transplanted into the test containers a few days prior to treatment.
(§3) Depending on the species, the plants were kept at 10-25° C. or 20-35° C. The test period extended over 2 to 4 weeks. During this time, the plants were tended, and their response to the individual treatments was evaluated.
(§4) Evaluation was carried out using a scale from 0 to 100. 100 means no emergence of the plants, or complete destruction of at least the aerial moieties, and 0 means no damage, or normal course of growth. A good herbicidal activity is given at values of at least 80 and a very good herbicidal activity is given at values of at least 90.

[2] = tested on: Chenopodium album (fat-hen); assay: Greenhouse post-emergence treatment of Chenopodium album; details: scale 0 (no damage) to 100 (complete destruction)
Source text: as §1, §2, §3, §4

[3] = tested on: Setaria viridis (green foxtail); assay: Greenhouse post-emergence treatment of Setaria viridis; details: application rate 500 [kg/ha], scale 0 (no damage) to 100 (complete destruction)
Source text: as §1, §2, §3, §4

[4] = tested on: Polygonum convolvulus (wild buckwheat); assay: Greenhouse post-emergence treatment of Polygonum convolvulus; details: scale 0 (no damage) to 100 (complete destruction)
Source text: as §1, §2, §3, §4

[5] = tested on: Echinochloa crus-galli (barnyard grass); assay: Greenhouse post-emergence treatment of Echinochloa crus-galli; details: application rate 500 [kg/ha], scale 0 (no damage) to 100 (complete destruction)
Source text: as §1, §2, §3, §4

Structure (SMILES) | damage [%] ([1]; application rate 500 [g/ha]) | damage [%] ([2]; application rate 500 [kg/ha]) | other results
O=C(O)c1cc(C2CC2)nc2onc(OC3CCCC3)c12 [I.a.91] | 100% | 98% | 
CCC(=O)CCc1noc2nc(C3CC3)cc(C(=O)O)c12 [I.a.74] | 98% | 98% | 
O=C(O)c1cc(C2CC2)nc2onc(OC3COC3)c12 [I.a.89] | 70% | 70% | 
O=C(O)c1cc(C2CC2)nc2onc(OC3CCC3)c12 [I.a.92] | 100% | 100% | damage [%] [3]: 85%
O=C(O)c1cc(C2CC2)nc2onc(OC3CCCCC3Cl)c12 (stereo not shown) [I.a.88] | 100% | 100% | 
CCC(CCc1noc2nc(C3CC3)cc(C(=O)O)c12)=NOC (mixture of isomers) [I.a.80] | 100% | 98% | damage [%] ([4]; application rate 500 [kg/ha]): 100%
CON=CCCc1noc2nc(C3CC3)cc(C(=O)O)c12 [I.a.59] | 98% | 98% | 
O=C(O)c1cc(C2CC2)nc2onc(SCc3ccccc3)c12 [I.a.85] |  |  | damage [%] [5]: 70%
COCCOc1noc2nc(C3CC3)cc(C(=O)O)c12 [I.a.67] |  |  | damage [%] ([2]; application rate 1000 [kg/ha]): 100%; damage [%] ([4]; application rate 1000 [kg/ha]): 98%
C=CCOc1noc2nc(C3CC3)cc(C(=O)O)c12 [I.a.44] |  |  | damage [%] ([1]; application rate 1000 [g/ha]): 100%; damage [%] ([2]; application rate 1000 [kg/ha]): 100%
CCC(CCc1noc2nc(C3CC3)cc(C(=O)O)c12)=NN [I.a.81] |  | 75% | 
O=C(O)c1cc(C2CC2)nc2onc(OCc3ccccc3)c12 [I.a.66] |  |  | damage [%] ([1]; application rate 1000 [g/ha]): 100%; damage [%] ([2]; application rate 1000 [kg/ha]): 100%
CCC(CCc1noc2nc(C3CC3)cc(C(=O)O)c12)=NO (mixture of isomers) [I.a.79] | 100% |  | damage [%] ([4]; application rate 500 [kg/ha]): 85%
O=C(O)c1cc(C2CC2)nc2onc(SC3CCCC3)c12 [I.a.87] | 80% | 70% | damage [%] [5]: 75%
O=C(NCC(F)(F)F)NN=CCCc1noc2nc(C3CC3)cc(C(=O)O)c12 [I.a.60] |  |  | damage [%] ([4]; application rate 500 [kg/ha]): 95%
O=C(O)c1cc(C2CC2)nc2onc(SC3CCCCC3)c12 [I.a.86] | 95% |  | 

— patent US9750256B2, “Herbicidal isoxazolo[5,4-B]pyridines” (BASF SE, priority 2012, dated 2017)
